Values of other authors as cited in patent US20250367112A1, “DRUG DELIVERY COMPOSITION FOR PROMOTING TISSUE REGENERATION AND KIT FOR DRUG DELIVERY COMPRISING SAME” (T&R BIOFAB CO., LTD., priority 2023, published 2025).
Where a name gives a salt, the structure may show the parent alone. Read-outs that look alike come from different tables or passages of the source.

CCCN1CCCC[C@H]1C(=O)Nc1c(C)cccc1C [Ropivacaine HCl]
in vivo half-life (epidural injection): 4.2 ± 1 h
in vivo half-life (intravenous injection): 1.8 ± 0.7 h
